Key:
MAO-A (liver) = assay: In vivo inhibition of liver MAO-A in orally pretreated rats; design: species or system rat; conditions: for Inhibition of liver MAO-A by the time of tyramine administration: single oral dose, equipotent doses for tyramine test; for Percentage Inhibition of MAO-A, Liver: 3 hr after oral dosing, extrapolated to zero tissue dilution
Description: (§1) To determine MAO inhibition in brains and livers of rats pretreated with reversible inhibitors, it was necessary to use an assay procedure that minimized dilution of the inhibitor. Thus, high concentrations of brain tissue homogenates were incubated for very short incubation times. For brain assays, initial tissue was 3-fold diluted into each assay. Because of the very high MAO activity in liver homogenates, further dilution of tissue was necessary in order to obtain reliable data. In this case, three different homogenate concentrations were assayed, and precent inhibition was extrapolated to zero tissue dilution. Substrate concentrations were not saturating, but were chosen relative to Km values for serotonin and phenethylamine in order to give an estimate of MAO-A and B, respectively.
(§2) Brains from pretreated male Sprague-Dawley rats (sacrificed 3 hours after oral dosing), were homogenized in a buffer consisting of 0.1M potassium phosphate and 5% sucrose (pH 7.4) at a 1:1 tissue wt/buffer volume ratio, using a motorized Teflon/glass homogenizer. MAO-A and B were determined by incubating 100 μl of tissue homogenate with 50 μl of a double-label substrate mixture to give final concentrations of [^3 H] serotonin, 0.4 mM (5 Ci/mol); and [^14 C] β-phenethylamine, 20 μM (3 Ci/mol). For blank assays 100 μl portions of homogenate were pre-incubated at 37° C. with pargyline (4 mM) before substrate addition. Incubations were at 37° C. for 30 sec. Assay mixtures were then acidified and products extracted as in the above in vitro method (White and Glassman). Liver tissue was homogenized in the above phosphate-sucrose buffer at a 1:5 tissue wt/buffer volume ratio. Portions (5, 10 and 50 μ l) of each homogenate were assayed with 50 μl of the above double-label substrate mixture in a total assay volume of 150 μl 0.067M potassium phosphate, pH 7.4. Blank assays included the same amounts of homogenate pre-incubated with 4 mM pargyline for 15 min at 37° C. After addition of substrates, mixtures were incubated at 37° C. for 20 sec, acidified, and products extracted as above. Percent inhibition for each liver homogenate was obtained by plotting % inhibition vs. reciprocal of tissue concentration and extrapolating back to zero dilution.

MAO-A (brain) = assay: In vivo inhibition of brain MAO-A in orally pretreated rats; design: species or system rat; conditions: for Inhibition of brain MAO-A by the time of tyramine administration: single oral dose, equipotent doses for tyramine test; for Percentage Inhibition of MAO-A, Brain: 3 hr after oral dosing
Description: as §1, §2

MAO-B (brain) = assay: In vivo inhibition of brain MAO-B in orally pretreated rats; design: species or system rat; conditions: 12.5-50 mg/kg p.o., 3 hr after oral dosing
Description: as §1
(§3) Brains from pretreated male Sprague-Dawley rats (sacrificed 3 hours after oral dosing), were homogenized in a buffer consisting of 0.1M potassium phosphate and 5% sucrose (pH 7.4) at a 1:1 tissue wt/buffer volume ratio, using a motorized Teflon/glass homogenizer. MAO-A and B were determined by incubating 100 μl of tissue homogenate with 50 μl of a double-label substrate mixture to give final concentrations of [^3 H] serotonin, 0.4 mM (5 Ci/mol); and [^14 C] β-phenethylamine, 20 μM (3 Ci/mol). […]

MAO-A [1] = target: T1, MAO-A (Rattus norvegicus, UniProt P21396); assay: In vitro MAO-A inhibition, double-label assay, mitochondrial extracts of rat brain; type: biochemical
T1 construct: mitochondrial extracts of rat or human brain; from tissue; host or cells: rat brain, mitochondrial extract
T1 sequence (P21396 1-526): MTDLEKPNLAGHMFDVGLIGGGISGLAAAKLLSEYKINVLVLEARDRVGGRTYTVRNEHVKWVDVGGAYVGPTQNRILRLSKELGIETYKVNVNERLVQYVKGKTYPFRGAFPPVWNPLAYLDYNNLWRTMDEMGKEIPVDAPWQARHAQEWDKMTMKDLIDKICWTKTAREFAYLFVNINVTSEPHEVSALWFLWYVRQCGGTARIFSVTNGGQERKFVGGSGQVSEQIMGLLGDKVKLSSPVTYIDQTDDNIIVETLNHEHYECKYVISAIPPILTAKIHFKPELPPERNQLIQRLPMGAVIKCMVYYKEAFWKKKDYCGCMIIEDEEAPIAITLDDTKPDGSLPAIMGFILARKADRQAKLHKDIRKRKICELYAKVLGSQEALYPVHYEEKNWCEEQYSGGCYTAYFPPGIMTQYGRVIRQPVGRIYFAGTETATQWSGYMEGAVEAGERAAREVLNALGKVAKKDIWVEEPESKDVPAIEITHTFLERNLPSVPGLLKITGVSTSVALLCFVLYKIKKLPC
Description: (§4) MAO was assayed with [^3 H] serotonin (0.2 mM, 5 Ci/mol) and [^14 C] β-phenethylamine (10 μM, 3 Ci/mol) as substrates in a double-label assay (White and Glassman, J. Neurochem 29:987-97 1977).

MAO = assay: Time course of in vivo MAO inhibition after oral dosing (other experiments, tissue not stated); design: species or system rat; conditions: oral dose of 50 mg/Kg
Description: as §1
as §2, with “([…]),” for “(sacrificed 3 hours after oral dosing),”, “Percent inhibition for each liver homogenate was obtained by plotting % inhibition vs. reciprocal of tissue concentration and extrapolating back to zero dilution.” left out

MAO-B (liver) = assay: In vivo inhibition of liver MAO-B in orally pretreated rats; design: species or system rat; conditions: 12.5-50 mg/kg p.o., 3 hr after oral dosing
Description: as §1, §3

MAO-A [2] = target: T2, MAO-A (Homo sapiens, UniProt P21397); assay: In vitro MAO-A inhibition, double-label assay, mitochondrial extracts of human brain; type: biochemical
T2 construct: mitochondrial extracts of rat or human brain; from tissue; host or cells: human brain, mitochondrial extract
T2 sequence (P21397 1-527): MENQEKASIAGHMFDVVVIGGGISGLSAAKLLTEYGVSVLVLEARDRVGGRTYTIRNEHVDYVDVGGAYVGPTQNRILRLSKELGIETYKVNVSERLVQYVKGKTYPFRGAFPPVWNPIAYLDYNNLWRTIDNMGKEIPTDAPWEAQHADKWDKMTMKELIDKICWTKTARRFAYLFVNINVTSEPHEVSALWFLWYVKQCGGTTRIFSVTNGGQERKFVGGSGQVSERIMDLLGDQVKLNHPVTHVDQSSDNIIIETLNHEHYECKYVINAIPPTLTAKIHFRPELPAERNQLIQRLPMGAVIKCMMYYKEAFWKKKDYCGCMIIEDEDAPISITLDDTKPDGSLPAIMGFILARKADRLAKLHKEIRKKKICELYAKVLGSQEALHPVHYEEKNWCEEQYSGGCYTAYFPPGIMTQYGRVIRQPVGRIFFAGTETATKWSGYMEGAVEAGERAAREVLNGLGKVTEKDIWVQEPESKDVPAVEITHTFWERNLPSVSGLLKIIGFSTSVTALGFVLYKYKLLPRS
Description: as §4

MAO-A [3] = assay: Kinetic mechanism of MAO-A inhibition (single substrate varied); type: biochemical, rat or human
Description: For studies of the kinetic mechanism of inhibition, the above method was used, except that a single substrate (serotonin or tyramine) was varied over a 10-fold concentration range that included the Km concentration. MAO activity was determined in the absence and presence of the compound under test at each substrate concentration in duplicate assays.

hypertensive activity = assay: Hypertensive activity with orally ingested tyramine in test animals; type: in vivo; conditions: oral antidepressant doses prior to orally ingested tyramine
[4] = test system: tetrabenazine-induced sedation; assay: Prevention of tetrabenazine-induced sedation; type: in vivo, Charles River CD-1 male mice
Description: Charles River CD-1 male mice (18-22 gm) were pretreated orally with various doses of Compound I or the reference standard, phenelzine, 60 min, 3 hr, or 5 hr before injection of tetrabenazine (35 mg/kg i.p.). […] Thirty minutes after injection of tetrabenazine, each mouse was scored on an arbitrary scale from one to four according to Vernier et al., ([…] Syomp. on Psychosomatic Medicine, J. H. Nodin and J. H. Moyer Eds., Lea and Febiger, Philadelphia, 1962, pp 683-90) for both depression of exploratory behaviour and presence or absence of blepharoptosis. Ratings were converted to a percent of rating received by mice receiving […] prior to tetrabenazine administration.

[5] = read-out: I50, inhibition of MAO-A

NNCCc1ccccc1 [phenelzine, reference compound]
Inhibition of liver MAO-A by the time of tyramine administration (MAO-A (liver)): ≥ 90% | Inhibition of brain MAO-A by the time of tyramine administration (MAO-A (brain)): approximately 80%

CNC(=O)c1ccc2c(c1)S(=O)(=O)c1ccccc1C2=O [Compound I, 3-N-methylcarbamoylthioxanthen-9-one 10,10-dioxide]
Inhibition of MAO-B, brain (MAO-B (brain)): no significant inhibition of MAO-B in either tissue | Inhibition of MAO-A (in words) (MAO-A [1]): potent selective inhibition of MAO-A | IC50 (MAO-A [1]; [5]): 50 nM | Reversibility of the in vivo inhibition (MAO): indicating reversibility of the in vivo inhibition | Time of maximum inhibition (MAO): 3 to 7 h | Inhibition at 24 hours after dosing (MAO; 24 hours after dosing): negligible | Inhibition of MAO-B, liver (MAO-B (liver)): no significant inhibition of MAO-B in either tissue | Inhibition of MAO-A (in words) (MAO-A [2]): potent selective inhibition of MAO-A | IC50 (MAO-A [2]; [5]): 50 nM | Percentage Inhibition of MAO-A, Liver (MAO-A (liver); 12.5 mg/kg p.o.): 79 ± 5% | Percentage Inhibition of MAO-A, Liver (MAO-A (liver); 25 mg/kg p.o.): 94 ± 4% | Percentage Inhibition of MAO-A, Liver (MAO-A (liver); 50 mg/kg p.o.): 92 ± 4% | Inhibition of liver MAO-A by the time of tyramine administration (MAO-A (liver)): ≥ 90% | Ki (MAO-A [3]; serotonin as substrate, mitochondrial extracts of rat or human brain): 16 nM | Mechanism of inhibition (MAO-A [3]; vs. the substrates, serotonin or tyramine): competitive | Percentage Inhibition of MAO-A, Brain (MAO-A (brain); 12.5 mg/kg p.o.): 37 ± 16% | Percentage Inhibition of MAO-A, Brain (MAO-A (brain); 25 mg/kg p.o.): 49 ± 10% | Percentage Inhibition of MAO-A, Brain (MAO-A (brain); 50 mg/kg p.o.): 78 ± 2% | Inhibition of brain MAO-A by the time of tyramine administration (MAO-A (brain)): approximately 80% | Hypertensive activity (in words) (hypertensive activity): No significant hypertensive activity | ED50 ([4]; Mus musculus, 1.5 h, oral, 90 minutes, tetrabenazine 35 mg/kg i.p.): 49 ± 10 mg/kg | Prevention of tetrabenazine-induced sedation (in words) ([4]; oral, 90 minutes, tetrabenazine 35 mg/kg i.p.): dose-dependent prevention of tetrabenazine-induced sedation | ED50 at 3 hr after treatment (in words) ([4]; oral, 3 hr after treatment, tetrabenazine 35 mg/kg i.p.): essentially the same as those found at 90 min | ED50 at 5 hr after treatment (in words) ([4]; oral, 5 hr after treatment, tetrabenazine 35 mg/kg i.p.): essentially the same as those found at 90 min

COc1cc2c(cc1OC)C1CC(=O)C(CC(C)C)CN1CC2 (stereo not drawn) [tetrabenazine, reference compound]
Treated mice remaining motionless with marked blepharoptosis ([4]; tetrabenazine 35 mg/kg i.p. (challenge agent)): 90-100%

Reference: patent publication US4623656A, “Method for inhibiting monoamine oxidase-A and treating depression by administering 3-N-methyl-thioxanthen-9-one carboxamide 10,10-dioxide” (priority 1984, dated 1986)
